Measurements taken from publication PMC7072329, “Discovery of Kynurenines Containing Oligopeptides as Potent Opioid Receptor Agonists” (Biomolecules, 2020).
Where a SMILES comes first, the peptide text is derived from it. [ ]: non-standard residue; d: D form. Kyn = Nc1ccccc1C(=O)C[C@H](N)C(=O)O

Legend:
NMDA receptor = assay: [3H]MK-801 competition binding, rat brain membrane; conditions: read-out: Ki + S.E.M., displacement of [3H]MK-801
G-protein = assay: functional [35S]GTPγS binding, guinea pig brain membrane homogenates; type: biochemical; conditions: ligand alone
Method: Rats and guinea pigs were decapitated, and their brains were quickly removed. The brains were used for membrane preparation following the procedure reported by Benyhe for binding and [^35S]GTPγS binding experiments, in agreement with the protocol of Zádor et al..
Homogenization of brains was performed in 30 volumes (v/w) of ice-cold 50 mM Tris-HCl pH 7.4 buffer with a Teflon-glass Braun homogenizer at 1500 rpm. The centrifuge was settled at 18,000 rpm for 20 min at 4 °C, the resulting supernatant discarded, and the pellet taken up in the original volume of Tris-HCl buffer. Incubation of homogenate at 37 °C for 30 min was performed in a shaking water-bath. Five volumes of 50 mM Tris-HCl pH 7.4 buffer were used to suspend the final pellet at −80 °C. For the [^35S]GTPγS binding experiments, the brains were homogenized with a Dounce in 5 volumes (v/w) of ice-cold TEM (Tris-HCl, EGTA, MgCl2) at −80 °C. The protein content of the membrane preparation was determined by the method of Bradford, BSA being used as a standard.
The functional [^35S]GTPγS binding experiments were performed as previously described. Briefly the membrane homogenates were incubated at 30 °C for 60 min in Tris-EGTA buffer (pH 7.4) composed of 50 mM Tris-HCl, 1 mM EGTA, 3 mM MgCl2, 100 mM NaCl, containing 20 MBq/0.05 cm^3 [^35S]GTPγS (0.05 nM) and increasing concentrations (10^−10 to 10^−5 M) of ligands. The experiments were performed in the presence of excess GDP (30 μM) in a final volume of 1 mL. Total binding was measured in the absence of test compounds, non-specific binding was determined in the presence of 10 μM unlabeled GTPγS. The reaction was terminated by rapid filtration under vacuum and washed three times with 5 mL ice-cold 50 mM Tris-HCl (pH 7.4) buffer through Whatman GF/B glass fibers. The radioactivity of the filters was detected in an UltimaGold^TM MV aqueous scintillation cocktail with a Packard Tricarb 2300TR liquid scintillation counter.
Experimental data are presented as means ± S.E.M. Sigmoid dose-response curves were fitted with GraphPad Prism 5.0 (GraphPad Prism Software Inc., San Diego, CA, USA). An unpaired t-test with two-tailed p value was performed to determine the significance level. In the competition binding assays, the ‘One site competition’ fitting was used to establish the equilibrium binding affinity (Ki value).
Figure S3. The effect of novel oligopeptides on G-protein activity in [35S]GTPγS binding assays in the absence or presence of the selective MOR antagonist cyprodime (Cyp) and the selective DOR antagonist naltrindole (NTI) in rat brain membrane homogenates (Figure A) and the selective KOR antagonist norbinaltorphine (nor-BNI) in guinea pig brain membrane homogenates (Figure B). […]

CD-1 male mice = assay: tail flick test; type: in vivo; conditions: i.c.v., 10 μg/10 μL, 15 to 120 min
Method: In our experiments, we used CD-1 male mice (Harlan, Italy, 25–30 g) maintained in colony, housed in cages (7 mice per cage) under standard light/dark cycle (from 7:00 a.m. to 7:00 p.m.), temperature (21 ± 1 °C) and relative humidity (60% ± 10%) for at least 1 week. Food and water were available ad libitum. The Service for Biotechnology and Animal Welfare of the Istituto Superiore di Sanità and the Italian Ministry of Health authorized the experimental protocol according to Legislative Decree 26/14.
DMSO was purchased from Merck (Rome, Italy). Peptides solutions were freshly prepared using saline containing 0.9% NaCl and DMSO in the ratio DMSO/saline 1:5 v/v every experimental day. […]
The tail flick latency was obtained using a commercial unit (Ugo Basile, Gemonio, Italy), consisting of an infrared radiant light source (100 W, 15 V bulb) focused onto a photocell utilizing an aluminum parabolic mirror. […] Radiant heat was focused 3–4 cm from the tip of the tail, and the latency (s) of the tail withdrawal to the thermal stimulus was recorded. […] The baseline latency was calculated as mean of three readings recorded before testing at intervals of 15 min and the time course of latency determined at 15, 30, 45, 60, 90, and 120 min after treatment. […]
Experimental data were expressed as mean ± s.e.m. […]

C[C@@H](NC(=O)[C@@H](N)Cc1ccc(O)cc1)C(=O)NCC(=O)N[C@@H](Cc1ccccc1)C(=O)N[C@@H](CC(=O)c1ccccc1N)C(N)=O [Peptide K6] (H-Y[dA]GF[Kyn]-NH2)
Ki (NMDA receptor): > 10 µM | Emax + S.E.M., Ligand (G-protein): 139.8 ± 2.3% | effect on time of response to thermal nociceptive stimuli (tail flick) (CD-1 male mice): greatly increase the time of response to thermal nociceptive stimuli
